US10914728B2, “Bioassay for insulin formulations” (priority 2016, dated 2021)

Columns and labels:
Assay type in all cases: cell-based
H4IIE cells [1] = assay: Mitogenicity (thymidine incorporation), H4IIE cells; conditions: radioactively labelled thymidine, read-out: Approximate EC50 values, Mitogenecity (thymidine incorporation)
Procedure: (§1) For signalling, cells were treated with vehicle or increasing doses of insulin for 30 minutes. Cells were lysed in appropriate buffers and phosphorylation of the insulin receptor, Erk, Akt or Foxo was determined by Western blotting or ELISA, as specified. For mitogenicity, H4IIE cells were incubated with vehicle or increased doses of insulin and cellular growth was measured by detection of thymidine incorporation. […] Uptake and conversion of glucose into lipids were measured after 2 hours by extracting lipids into Microscint-e and measuring radioactivity using a top counter.
(§2) For all methods: to determine EC50 values, data were fitted to a nonlinear 4 parameter regression curve using Graphpad Prism software.

H4IIE cells [2] = assay: Sensitivity assessment: ERK phosphorylation, H4IIE cells, Western blotting; conditions: insulin for 30 minutes, read-out: Approximate EC50 values, ERK phosphorylation
Procedure: as §1, §2

primary rat adipocytes = assay: Rat free fat cell lipogenesis; conditions: Isolated primary rat adipocytes; H3 labelled glucose; 2 hours; read-out: Approximate EC50 values, Rat Free Fat Cell lipogenesis
Procedure: as §1, §2

human insulin
EC50 (H4IIE cells [1]): ~1 nM
EC50 (H4IIE cells [2]): ~2.3 nM
EC50 (primary rat adipocytes): ~0.02 nM
